Source: patent publication US4393055A, “Hydroxyalkyl ether derivatives of rutin poly(H-)sulfate and method of use” (American Cyanamid Company, priority 1982, dated 1983)
“And” between values parts separate entries of the source, which are not always exact repeats. Equal values may be shown once. Where a name gives a salt, the structure may show the parent alone.

Legend:
[1] = target: activated human C1 (Homo sapiens, UniProt P09871); assay: Test Code 026 (C1 inhibitor); format: biochemical; details: twofold serial dilutions; higher well number indicates higher activity
Procedure: (§1) An active inhibitor protects C2 from C1 and C4; (ii) Cap 50 Test--Here, appropriate amounts of the test compound are added to a pool of guinea pig serum in vitro, after which the undiluted serum capillary tube assay referred to above is run. The concentration of compound inhibiting 50% is reported; and (iii) Guinea Pig Intraperitoneal Test (GPIP)--Guinea pigs weighing about 300 g. are dosed intraperitoneally (i.p.) with 200 mg./kg. of the test compound dissolved in saline and adjusted to pH 7-8. Approximately 0.4 ml. blood samples, taken by orbital sinus puncture 30 minutes and one hour after injections, are collected directly into centrifuge tubes; 5 ml. blood samples, taken by decapitation 2 hours after injection are collected directly into beakers. The samples are allowed to clot, centrifuged, and the resultant sera are assayed for complement activity using the capillary complement assay. Percent inhibition are calculated by comparison with simultaneous controls.

[2] = tested on: complement activity of sera; assay: Guinea Pig Intraperitoneal Test (GPIP); format: in vivo; details: 200 mg./kg. i.p.
Procedure: as §1, with “[…],” for “taken by orbital sinus puncture 30 minutes and one hour after injections,”, “taken by decapitation 2 hours after injection are collected directly into” left out

[3] = tested on: total hemolytic complement activity; details: in vitro and in vivo; judged by reduction in total hemolytic complement activity; cited from earlier work

activated human C1, sequence (P09871 16-437 limits assumed): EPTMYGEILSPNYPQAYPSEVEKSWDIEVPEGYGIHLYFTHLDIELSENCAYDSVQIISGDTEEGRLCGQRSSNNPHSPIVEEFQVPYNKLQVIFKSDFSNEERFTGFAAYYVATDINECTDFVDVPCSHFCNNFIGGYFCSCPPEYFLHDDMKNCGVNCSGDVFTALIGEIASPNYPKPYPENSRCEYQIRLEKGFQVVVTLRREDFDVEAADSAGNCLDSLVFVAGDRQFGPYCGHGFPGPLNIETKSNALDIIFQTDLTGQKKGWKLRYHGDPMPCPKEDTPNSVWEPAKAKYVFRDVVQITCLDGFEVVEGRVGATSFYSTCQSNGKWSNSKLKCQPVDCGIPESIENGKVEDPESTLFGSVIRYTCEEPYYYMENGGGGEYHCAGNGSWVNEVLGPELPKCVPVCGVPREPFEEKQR
activated human C1, sequence (P09871 438-688 limits assumed): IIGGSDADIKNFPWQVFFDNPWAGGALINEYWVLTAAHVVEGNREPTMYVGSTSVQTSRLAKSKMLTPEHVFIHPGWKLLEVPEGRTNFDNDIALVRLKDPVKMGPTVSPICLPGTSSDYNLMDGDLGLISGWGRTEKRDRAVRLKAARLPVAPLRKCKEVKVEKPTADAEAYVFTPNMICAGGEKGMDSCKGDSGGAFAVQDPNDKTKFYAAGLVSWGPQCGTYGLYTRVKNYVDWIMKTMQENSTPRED
activated human C1, sequence (P00736 18-463 partner limits assumed): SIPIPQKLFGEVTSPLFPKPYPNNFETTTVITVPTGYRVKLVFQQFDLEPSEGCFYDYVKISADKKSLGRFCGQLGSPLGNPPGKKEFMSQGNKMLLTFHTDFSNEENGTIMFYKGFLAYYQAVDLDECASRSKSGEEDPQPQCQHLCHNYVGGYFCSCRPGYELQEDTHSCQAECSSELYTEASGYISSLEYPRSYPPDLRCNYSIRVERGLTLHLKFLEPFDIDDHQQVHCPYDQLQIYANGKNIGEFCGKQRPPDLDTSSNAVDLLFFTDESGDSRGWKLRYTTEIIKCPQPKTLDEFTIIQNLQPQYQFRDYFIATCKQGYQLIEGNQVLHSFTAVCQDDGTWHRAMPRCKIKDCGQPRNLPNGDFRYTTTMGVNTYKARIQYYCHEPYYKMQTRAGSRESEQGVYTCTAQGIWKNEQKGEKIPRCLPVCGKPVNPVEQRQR
activated human C1, sequence (P00736 464-705 partner limits assumed): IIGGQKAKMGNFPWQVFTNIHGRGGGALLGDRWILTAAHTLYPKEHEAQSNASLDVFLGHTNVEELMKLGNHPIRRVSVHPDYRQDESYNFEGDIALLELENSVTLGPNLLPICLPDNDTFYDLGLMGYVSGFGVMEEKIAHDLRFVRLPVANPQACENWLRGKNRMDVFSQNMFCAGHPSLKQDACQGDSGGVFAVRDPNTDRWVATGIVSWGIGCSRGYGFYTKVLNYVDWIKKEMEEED

Compound | In vitro Activity 026 (activity in wells, serial dilution assay) [1] | In vivo Activity (Guinea Pig) Intraperitoneal % Inhibition ([2]; Time (hours) 6) | In vivo Activity (Guinea Pig) Intraperitoneal % Inhibition ([2]; Time (hours) 4) | In vivo Activity (Guinea Pig) Intraperitoneal % Inhibition ([2]; Time (hours) 24) | anticomplementary activity on human serum [3]
C[C@@H]1O[C@@H](OC[C@H]2O[C@@H](Oc3c(-c4ccc(OCCOS(=O)(=O)O)c(OCCOS(=O)(=O)O)c4)oc4cc(OCCOS(=O)(=O)O)cc(OS(=O)(=O)O)c4c3=O)[C@H](OS(=O)(=O)O)[C@@H](OS(=O)(=O)O)[C@@H]2OS(=O)(=O)O)[C@H](OS(=O)(=O)O)[C@H](OS(=O)(=O)O)[C@H]1OS(=O)(=O)O [3',4',7-Tris(2-hydroxyethyl)rutin, deca(H-sulfate)sodium salt] | 7-10 wells | 48% and 82% | – | – | –
C[C@@H]1O[C@@H](OC[C@H]2O[C@@H](Oc3c(-c4ccc(OS(=O)(=O)O)c(OS(=O)(=O)O)c4)oc4cc(OCCOS(=O)(=O)O)cc(OS(=O)(=O)O)c4c3=O)[C@H](OS(=O)(=O)O)[C@@H](OS(=O)(=O)O)[C@@H]2OS(=O)(=O)O)[C@H](OS(=O)(=O)O)[C@H](OS(=O)(=O)O)[C@H]1OS(=O)(=O)O [7-(2-hydroxyethyl)rutin, deca(H-sulfate)sodium salt] | 6-12 wells | 71% | 88% | 20% | –
C[C@@H]1O[C@@H](OC[C@H]2O[C@@H](Oc3c(-c4ccc(OS(=O)(=O)O)c(OS(=O)(=O)O)c4)oc4cc(OCCOS(=O)(=O)O)cc(O)c4c3=O)[C@H](OS(=O)(=O)O)[C@@H](OS(=O)(=O)O)[C@@H]2OS(=O)(=O)O)[C@H](OS(=O)(=O)O)[C@H](OS(=O)(=O)O)[C@H]1OS(=O)(=O)O [7-(2-hydroxyethyl)rutin, nona(H-sulfate)sodium salt] | 9-12 wells | 71% | 86% | 35% | –
pentosanpolysulfoester | – | – | – | – | has an anticomplementary activity on human serum, both in vitro and in vivo
